Test results as given in patent publication US8258098B2, “Antitumoral treatments” (Pharma Mar, S.A., priority 2006, dated 2012).
Where two headings read alike, the source gives them in different places.

What was measured:
[1] = test system: RL human lymphoma cells; assay: Antitumor efficacy against subcutaneous-implanted lymphoma xenograft; assay type: in vivo; details: median tumor weight, Aplidine 60 μg/kg/dose IP q1d × 9 day 15, 28, Rituximab 20 mg/kg/dose IP q3d × 2 day 15, 22, 29, 36
Text: The purpose of this study was to evaluate the antitumor efficacy of Aplidine when administered in combination with rituximab against subcutaneous-implanted RL human lymphoma cells in […], SCID mice.
(§1) The animals were housed in microisolator cages, up to five per cage in a 12-hour light/dark cycle. Six-weeks-old male, SCID mice were acclimated in the laboratories for one week prior to the experiment.
Each mouse was inoculated s.c. near the right flank with RL human lymphoma cells from an in vitro cell culture using a 23-gauge needle. Each mouse received 1.0×10^7 cells resuspended in 0.2 mL of Matrigel®. […] The cell count was determined with a Coulter Model Z1 cell counter and viability was measured following propidium iodide staining and analyzed using a Beckman Coulter EPICS XL flow cytometer. […]
Animals were observed daily and clinical signed were noted. The s.c. tumors were measured and the animals were weighed twice weekly starting with the first day of treatment, Day 15. Tumor volume was determined by caliper measurements (mm) and using the formula for an ellipsoid sphere as described in Example 7.

[2] = test system: A549 cells; assay: MTS cytotoxicity assay, 72 hours, single agents and combinations with Aplidine; assay type: cell-based; details: A549, 72 hours drug exposure, read-out: IC50 (Molar)
Procedure: (§2) Day before plating cells all cultures were fed with fresh, complete growth media. On the harvest (plating) day cells were counted by Trypan Blue exclusion staining method (basic cell culture). Cells were harvested and seeded in 96 well microtiter plates at 10,000 cells per well in 190 μL of media and incubated for 24 hours to allow the cells to attach before drug addition. Cells were treated with the drugs and the cytotoxic effect was measured by the MTS Assay (Tetrazolium), which is a colorimetric method for determining the number of viable cells. After the 72 hours of incubation with drug, 25 μL of MTS+PMS solution was added to each microtiter well and incubated for 4 hours at 37° C. Plates were then removed from incubator and placed on plate shaker for 5 minutes (covered with aluminium foil for protection from light). Optical densities were read at 490 nm on spectrophotometer plate reader.
(§3) The microtiter plates were incubated for 72 hrs, at 5% CO2 and 37° C. The cytotoxic effect was measured by MTS Assay. Optical densities read at 490 nm. Normalized data was plotted and interpreted as described. Data was analysed as: • 1. Prism (Graphpad) software program was used to normalized the data to control values (100%=cell growth in the absence of agent (drug); 0%=blank control). • 2. Data normalized were plotted as scatter plots.
(§4) Conversely, antagonism was concluded when inhibition was lower than both maxima. […] Statistical significance was assessed by performing a student's t-test on the inhibition at each dose ratio versus the inhibition at the maximum for each drug.
(§5) As a visual aid, response values were plotted on a scatter plot with dose ratios given on the x-axis and % response values on the y-axis. […] In cases where response values at the two endpoints were approximately equivalent, points lying above or below this predicted line of additivity could be interpreted as representing antagonistic or synergistic drug interaction, respectively.

[3] = test system: HL60 cells; assay: as above; assay type: cell-based; details: read-out: IC50 (Molar)
Procedure: as §2, §3, §4, §5

[4] = test system: HT29 cells; assay: as above; assay type: cell-based; details: read-out: IC50 (Molar)
Procedure: as §2, §3, §4, §5

[5] = test system: MOLT3 cells; assay: as above; assay type: cell-based; details: read-out: IC50 (Molar)
Procedure: as §2, §3, §4, §5

[6] = test system: MX1 cells; assay: as above; assay type: cell-based; details: MX1, 72 hours drug exposure, read-out: IC50 (Molar)
Procedure: as §2, §3, §4, §5

[7] = test system: PC3 cells; assay: as above; assay type: cell-based; details: read-out: IC50 (Molar)
Procedure: as §2, §3, §4, §5

[8] = test system: SKBR3 cells; assay: as above; assay type: cell-based; details: read-out: IC50 (Molar)
Procedure: as §2, §3, §4, §5

[9] = test system: HL-60 cells; assay: MTS assay Example 2, single agents and combinations; assay type: cell-based; details: Homo sapiens; HL-60, MTS; read-out: IC50 (Molar)
Procedure: (§6) The day before plating cells all cultures were fed with fresh, complete growth media. On the harvest (plating) day cells were counted by Trypan Blue exclusion staining method.
(§7) Cells were harvested and seeded in 96 well microtiter plates at 15,000 cells per well in 190 μl of media and incubated for 24 hours to allow the cells to attach before drug addition.
(§8) The cytotoxic effect was measured by the MTS Assay (Tetrazolium), which is a colorimetric method for determining the number of viable cells.
(§9) After 72 hours of incubation with tested agents 25 μl of MTS+PMS solution was added to each microtiter well and incubated for 4 hours at 37° C. Plates were then removed from incubator and placed on plate shaker for 5 minutes (covered with aluminum foil for protection from light). Optical densities were read at 490 nm on spectrophotometer plate reader. Data was analyzed as: • 1. Prism (Graphpad) software program was used to normalized the data to control values (100%=cell growth in the absence of agent (drug); 0%=blank control). • 2. Data normalized were plotted as scatter plots.
as §4
as §5, with “interaction” for “interaction,”

[10] = test system: HUNS-1 cells; assay: as above; assay type: cell-based; details: HuNS1; HUNS-1, MTS; read-out: IC50 (Molar)
Procedure: as §6, §7, §8, §9, §4
as §5, with “interaction” for “interaction,”

[11] = test system: K562 cells; assay: as above; assay type: cell-based; details: Homo sapiens, read-out: IC50 (Molar)
Procedure: as §6, §7, §8, §9, §4
as §5, with “interaction” for “interaction,”

[12] = test system: MC116 cells; assay: as above; assay type: cell-based; details: Homo sapiens, read-out: IC50 (Molar)
Procedure: as §6, §7, §8, §9, §4
as §5, with “interaction” for “interaction,”

[13] = test system: MOLT-3 cells; assay: as above; assay type: cell-based; details: Homo sapiens; MOLT-3, MTS; read-out: IC50 (Molar)
Procedure: as §6, §7, §8, §9, §4
as §5, with “interaction” for “interaction,”

[14] = test system: NCI-H929 cells; assay: as above; assay type: cell-based; details: Homo sapiens, read-out: IC50 (Molar)
Procedure: as §6, §7, §8, §9, §4
as §5, with “interaction” for “interaction,”

[15] = test system: RAMOS cells; assay: as above; assay type: cell-based; details: Homo sapiens, read-out: IC50 (Molar)
Procedure: as §6, §7, §8, §9, §4
as §5, with “interaction” for “interaction,”

[16] = test system: RPMI 8226 cells; assay: as above; assay type: cell-based; details: Homo sapiens; RPMI 8226, MTS; read-out: IC50 (Molar)
Procedure: as §6, §7, §8, §9, §4
as §5, with “interaction” for “interaction,”

[17] = test system: U266B-1 cells; assay: as above; assay type: cell-based; details: U266B-1, MTS; read-out: IC50 (Molar)
Procedure: as §6, §7, §8, §9, §4
as §5, with “interaction” for “interaction,”

[18] = test system: U937 cells; assay: as above; assay type: cell-based; details: Homo sapiens, U-937, read-out: IC50 (Molar)
Procedure: as §6, §7, §8, §9, §4
as §5, with “interaction” for “interaction,”

[19] = test system: H9 cells; assay: MTS assay Example 2, single agents; assay type: cell-based; details: Homo sapiens, read-out: IC50 (Molar)
Procedure: as §6, §7, §8, §9

[20] = test system: HUT78 cells; assay: MTS assay Example 2, single agents; assay type: cell-based; details: Homo sapiens, read-out: IC50 (Molar)
Procedure: as §6, §7, §8, §9

[21] = test system: RPMI-8226 cell line; assay: cells; assay type: cell-based; details: Homo sapiens, RPMI-8226, 72 h, read-out: IC50 (Molar)
Procedure: (§10) These cell lines were cultured in RPMI1640 medium with 10% FBS and 1% L-Glutamine. Each cell line was plated in a 96 well plates at 20,000 cell per well.
(§11) Each serial dilution was paired with 4 different concentrations of Bortezomib or Melphalan.
(§12) The plates were incubated for 3 days at 37° C. and 5% CO2. The plates were read using the Promega MTS assay system with MTS being metabolized by living cells turning into formazan which is […] at 490 nm wavelength. This is an indirect measure of cell viability. These were analyzed using the Softmax Pro program which determines cell viability based percent of control wells. This IC50 data was then transferred into the CalcuSyn program for combination index analysis. CalcuSyn compares IC50 the values of the drugs alone with that of the drugs in combination using an algorithm to determine a combination index.

[22] = test system: U266B1 cell line; assay: cells; assay type: cell-based; details: 72 h, read-out: IC50 (Molar)
Procedure: as §10, §11, §12

[23] = test system: RPMI 8226 human myeloma cells; assay: Antitumor efficacy against subcutaneous-implanted myeloma xenograft; assay type: in vivo, male, SCID mice; details: RPMI 8226 xenograft, median tumor weight; Aplidine 60 μg/kg/dose IP q1d × 9 day 18, 38; Bortezomib 0.35 mg/kg/dose IV
Procedure: as §1
Each mouse received 2×10^7 cells resuspended in 0.2 mL of Matrigel®. […] Cells were harvested after four passages in culture. The cells were removed from the flasks, placed in 50-mL centrifuge tubes and centrifuged at 1,000 rpm for 10 minutes in a refrigerated centrifuge. The cell pellets were resuspended in fresh complete medium. The cell count and viability were determined with a Beckman Coulter VI CELL XR cell counter and viability analyzer. The cell suspension was recentrifuged, and the cell pellet was resuspended in Matrigel® at a cell density of 1.0×10^8 cells/mL and placed on wet ice.
The day of tumor cell inoculation was designated as Day 0. […] Those animals selected with tumors in the proper size range were assigned to four treatment groups so that the median tumor weights on the first day of treatment were as close to each other as possible. […]
Animals were observed daily and clinical signed were noted. The s.c. tumors were measured and the animals were weighed twice weekly starting with the first day of treatment, Day 18 after tumor cell inoculation.

Row | Molecule | IC50 [2] [µM] | IC50 ([3]; HL60, 72 hours drug exposure) [µM] | IC50 ([4]; HT29, 72 hours drug exposure) [µM] | IC50 ([5]; MOLT3, 72 hours drug exposure) [µM] | IC50 [6] [µM] | IC50 ([7]; PC3, 72 hours drug exposure) [µM] | IC50 ([8]; SKBR3, 72 hours drug exposure) [µM] | other results
1 | Rituximab: Rituxan® (Rituximab), standard agent | – | – | – | – | – | – | – | % T/C on day 24 [1]: 95%; % T/C on day 38 [1]: 102%
2 | Nc1ccn([C@@H]2O[C@H](CO)[C@@H](O)[C@@H]2O)c(=O)n1 [AraC, cytosine arabinoside] | > 100 | 10 | > 100 | 0.22 | > 100 | > 100 | > 100 | –
3 | N.N.[Cl][Pt][Cl] [cisplatin] | 6 | 12 | 720 | 0.57 | 170 | 87 | 7 | –
4 | COc1cc([C@@H]2c3cc4c(cc3[C@@H](O[C@@H]3O[C@@H]5CO[C@@H](C)O[C@H]5[C@H](O)[C@H]3O)[C@H]3COC(=O)[C@H]23)OCO4)cc(OC)c1O [VP16, etoposide] | – | – | – | – | – | – | – | IC50 [9]: 2 µM; IC50 [10]: 3.1 µM; IC50 [11]: 7.6 µM; IC50 [12]: 0.23 µM; IC50 [13]: 0.024 µM; IC50 [14]: 2.4 µM; IC50 [15]: 0.11 µM; IC50 [16]: 0.37 µM; IC50 [17]: 5.9 µM; IC50 [18]: 0.44 µM; IC50 [19]: 0.73 µM; IC50 [20]: 1.4 µM
5 | CCc1c2c(nc3ccc(O)cc13)-c1cc3c(c(=O)n1C2)COC(=O)[C@]3(O)CC [SN38, 7-ethyl-10-hydroxycamptothecin] | 1300 | < 1 | 0.12 | 1 | 0.15 | 46 | < 1e-05 | –
6 | arsenic trioxide | 420 | 20 | 80 | 3.7 | 97 | 1200 | 100 | –
7 | CC(C)C[C@H](NC(=O)[C@H](Cc1ccccc1)NC(=O)c1cnccn1)B(O)O [Bortezomib] | – | – | – | – | – | – | – | IC50 ([21]; RPMI8226, MTS): 0.00229 µM; IC50 ([22]; U2661, MTS): 16.6 µM; % T/C on day 27 [23]: 70%; % T/C on day 48 [23]: 67%
8 | COc1cccc2c1C(=O)c1c(O)c3c(c(O)c1C2=O)C[C@@](O)(C(=O)CO)C[C@@H]3O[C@H]1C[C@H](N)[C@H](O)[C@H](C)O1 [doxorubicin] | – | – | – | – | – | – | – | IC50 ([2]; Homo sapiens): 1.3 µM; IC50 ([3]; Homo sapiens, HL-60, HL60, 72 hours drug exposure): > 100 µM; IC50 ([4]; Homo sapiens, HT-29, HT29, 72 hours drug exposure): > 100 µM; IC50 ([5]; Homo sapiens, MOLT-3, MOLT3, 72 hours drug exposure): 0.0069 µM; IC50 ([6]; Homo sapiens): > 100 µM; IC50 ([7]; Homo sapiens, PC-3, PC3, 72 hours drug exposure): 11 µM; IC50 ([8]; Homo sapiens, SK-BR-3, SKBR3, 72 hours drug exposure): 0.29 µM
9 | N[C@@H](Cc1ccc(N(CCCl)CCCl)cc1)C(=O)O [Melphalan] | – | – | – | – | – | – | – | IC50 [21]: 16.1 µM; IC50 [22]: 0.00316 µM
